± gives the expanded uncertainty stated by the source.
Conditions: Crystal; DTA

Row | Normal melting temperature | Structure (SMILES)
1 | -95.76 ± 0.5 °C | CCCCCC [hexane]
2 | 0.00 ± 0.5 °C | O [water]

Row | Structure (SMILES) | Normal melting temperature
3 | [Hg] [mercury] | -38.86 ± 0.5 °C
